pIC50: −log10 of the molar value.

For this experiment, the target named is T1, Receptor-type tyrosine-protein kinase FLT3 (Homo sapiens, UniProt P36888).
T1 sequence (P36888 whole entry): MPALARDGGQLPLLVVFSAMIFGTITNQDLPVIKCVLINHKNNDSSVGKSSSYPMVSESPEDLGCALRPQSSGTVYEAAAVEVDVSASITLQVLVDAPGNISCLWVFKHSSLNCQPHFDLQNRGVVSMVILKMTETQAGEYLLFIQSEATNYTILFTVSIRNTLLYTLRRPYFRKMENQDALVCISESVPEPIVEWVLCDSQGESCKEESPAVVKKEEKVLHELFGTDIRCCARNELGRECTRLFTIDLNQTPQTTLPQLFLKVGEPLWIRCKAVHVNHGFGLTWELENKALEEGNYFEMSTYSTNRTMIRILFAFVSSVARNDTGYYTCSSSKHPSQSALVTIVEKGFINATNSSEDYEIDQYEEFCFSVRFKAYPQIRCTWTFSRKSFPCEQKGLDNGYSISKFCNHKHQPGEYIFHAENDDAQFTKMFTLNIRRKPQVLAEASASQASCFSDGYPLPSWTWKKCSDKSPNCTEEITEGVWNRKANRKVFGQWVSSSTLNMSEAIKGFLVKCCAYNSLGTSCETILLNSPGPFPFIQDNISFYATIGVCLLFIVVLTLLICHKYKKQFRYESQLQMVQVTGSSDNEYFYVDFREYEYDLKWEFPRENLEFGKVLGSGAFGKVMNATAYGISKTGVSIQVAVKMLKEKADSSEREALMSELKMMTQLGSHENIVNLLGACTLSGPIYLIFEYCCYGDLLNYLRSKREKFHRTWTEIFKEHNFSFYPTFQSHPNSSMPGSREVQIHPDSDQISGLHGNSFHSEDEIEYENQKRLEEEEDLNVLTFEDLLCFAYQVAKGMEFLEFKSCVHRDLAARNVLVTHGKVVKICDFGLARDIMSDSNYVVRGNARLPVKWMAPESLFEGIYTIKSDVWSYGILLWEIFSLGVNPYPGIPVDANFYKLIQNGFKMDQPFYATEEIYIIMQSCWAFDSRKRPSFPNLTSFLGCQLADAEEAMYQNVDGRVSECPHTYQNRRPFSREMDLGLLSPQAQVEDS
Description: Inhibition of recombinant human N-terminal GST-tagged FLT3 (564 to end residues) expressed by baculovirus in Sf21 insect cells measured after 10 mins in presence of [gamma-33P]ATP by scintillation counter method.

One may read the pIC50 as the negative decadic logarithm of the IC50, by convention in mol/L. Regarding `CC(C)(C)c1cc(NC(=O)Nc2ccc(Oc3ncnc4[nH]ncc34)cc2)n(-c2ccccc2)n1`, the pIC50 is 7.30.

In the case of `Cn1nc(C(F)(F)F)cc1NC(=O)Nc1ccc(Oc2ncnc3[nH]ncc23)c(F)c1`, the pIC50 is 7.44.

`CC(C)(C)c1cc(NC(=O)Nc2ccc(Oc3ncnc4[nH]ncc34)c(F)c2)n(-c2ccc(F)cc2)n1`: the pIC50 is 7.38.

Turning to `Cn1nc(C(F)(F)F)cc1NC(=O)Nc1ccc(Oc2ncnc3[nH]ncc23)cc1`, the pIC50 is 7.42.

Turning to `CC(C)(C)c1cc(NC(=O)Nc2ccc(Oc3ncnc4[nH]ncc34)cc2)on1`, the pIC50 was 8.10.

For `O=C(Nc1ccc(Oc2ncnc3[nH]ncc23)cc1)Nc1cc(C(F)(F)F)on1`, the pIC50 was 7.55.

As to `CC(C)(C)c1cc(NC(=O)Nc2ccc(Oc3ncnc4[nH]ncc34)cc2F)no1`, the pIC50 was 8.22.

For the compound `O=C(Nc1ccc(Oc2ncnc3[nH]ncc23)cc1)Nc1nc(-c2ccccc2)cs1`, the pIC50 was 7.14.

With `Cn1nc(C(C)(C)C)cc1NC(=O)Nc1ccc(Oc2ncnc3[nH]ncc23)c(F)c1`, the pIC50 is 7.18.

Regarding `Cc1cc(NC(=O)Nc2cc(C(C)(C)C)on2)ccc1Oc1ncnc2[nH]ncc12`, the pIC50 is 8.22.

In the case of `CC(C)(C)c1csc(NC(=O)Nc2ccc(Oc3ncnc4[nH]ncc34)cc2)n1`, the pIC50 is 8.10.

On to `CN(C)CCCn1ncc2c(Oc3ccc(NC(=O)Nc4cc(C(C)(C)C)on4)cc3)ncnc21`, for which the pIC50 was 7.10.

In the case of `CC(C)n1ncc2c(Oc3ccc(NC(=O)Nc4cc(C(C)(C)C)on4)cc3)ncnc21`, the pIC50 is 6.66.

Turning to `CC(C)(C)c1cc(NC(=O)Nc2ccc(Oc3ncnc4[nH]ncc34)cc2)n(C2CCCC2)n1`, the pIC50 was 7.28.

For `CC(C)(C)c1cc(NC(=O)Nc2ccc(Oc3ncnc4[nH]ncc34)c(Cl)c2)no1`, the pIC50 is 8.70.

Consider `Cc1cc(Oc2ncnc3[nH]ncc23)ccc1NC(=O)Nc1cc(C(C)(C)C)on1`, for which the pIC50 is 6.18.

With `CC(C)(C)c1cc(NC(=O)Nc2ccc(Oc3ncnc4[nH]ncc34)cc2)n(C(=O)O)n1`, the pIC50 was 8.00.

`Cn1nc(C(C)(C)C)cc1NC(=O)Nc1ccc(Oc2ncnc3[nH]ncc23)cc1`: the pIC50 is 7.21.

Take `CC(C)(C)c1cc(NC(=O)Nc2ccc(Oc3ncnc4[nH]ncc34)c(F)c2)n(C2CCCC2)n1`: the pIC50 was 7.28.

`CC(C)(C)c1cc(NC(=O)Nc2ccc(Oc3ncnc4[nH]ncc34)c(F)c2)n(-c2ccccc2)n1`: the pIC50 is 7.25.

Regarding `CC(C)c1cc(NC(=O)Nc2ccc(Oc3ncnc4[nH]ncc34)cc2)n(C)n1`, the pIC50 is 7.09.

For `Cn1ncc2c(Oc3ccc(NC(=O)Nc4cc(C(C)(C)C)on4)cc3)ncnc21`, the pIC50 was 7.57.

With `O=C(Nc1ccc(Oc2ncnc3[nH]ncc23)cc1)Nc1nc2ccccc2s1`, the pIC50 was 6.53.

As to `CC(C)(C)c1cc(NC(=O)Nc2ccc(Oc3ncnc4c3cnn4CCN3CCOCC3)cc2)no1`, the pIC50 was 6.35.

`CC(C)(C)c1cc(NC(=O)Nc2ccc(Oc3ncnc4[nH]ncc34)cc2)no1`: the pIC50 was 7.96.

The values above are taken from ChEMBL document CHEMBL4428067, “Drug Discovery against Psoriasis: Identification of a New Potent FMS-like Tyrosine Kinase 3 (FLT3) Inhibitor, 1-(4-((1H-Pyrazolo[3,4-d]pyrimidin-4-yl)oxy)-3-fluorophenyl)-3-(5-(tert-butyl)isoxazol-3-yl)urea, That Showed Potent Activity in a Psoriatic Animal Model” (J Med Chem, 2016).
